# Experimental data reported in publication PMC8831520, “Small molecule SWELL1 complex induction improves glycemic control and nonalcoholic fatty liver disease in murine Type 2 diabetes” (Nature Communications, 2022).
# System: T1, SWELL1 protein in 3T3-F442A preadipocytes
# T1 construct: host or cells: 3T3-F442A preadipocytes and differentiated adipocytes (wild type)
# Assay: SWELL1 protein western blot in preadipocytes
# Assay type: cell-based, murine
# Conditions: 10 µM, 96 h
# Description: In the case of 3T3-F442A adipocytes, the WT and KO cells were treated with either vehicle (DMSO), 1 or 10 µM SN-40X (after 7–11 days of differentiation) for 96 h and then stimulated with 0 and 10 nM insulin/serum-containing media with vehicle (DMSO) or SN-40X for 15 min for SWELL1 detection. […] To simulate glucolipotoxicity, 8 mM sodium palmitate was dissolved in 18.4% fatty-acid free BSA at 37 °C in DMEM medium with 25 mM glucose to obtain a conjugation ratio of 1:3 palmitate:BSA[80].
# Adipocytes were washed twice in ice-cold phosphate buffer saline and lysed in RIPA buffer (150 mM NaCl, 20 mM HEPES, 1% NP-40, 5 mM EDTA, pH 7.4) with proteinase/phosphatase inhibitors (Roche). The cell lysate was further sonicated in 10 s cycle intervals 2–3 times and centrifuged at 18,407×g for 30 min at 4 °C and repeated one more time to remove the excess fat. The supernatant was collected and further estimated for protein concentration using a DC protein assay kit (Bio-Rad). Fat and liver tissues were homogenized and suspended in RIPA buffer with inhibitors and further processed in a similar fashion as described above. HUVECs were also prepared in a similar fashion except the lysates were spun only once to remove the cells debris to obtain the clear supernatant. […] The images were further analyzed for band intensities using ImageJ software. […]
smiles,measurement,value
"CCCCC1(C2CCCC2)Cc2cc(OCCCC(=O)O)c(Cl)c(Cl)c2C1=O (stereo not shown) [SN-401, 4-((2-butyl-6,7-dichloro-2-cyclopentyl-1-oxo-2,3-dihydro-1H-inden-5-yl)oxy)butanoic acid]",SWELL1 protein expression,threefold
